Broadly, the Ki is a measure of affinity in units of concentration, obtained from inhibition or displacement. A higher Ki goes with a looser hold on the target. As usually defined, the Km is the substrate concentration at which the rate is half of its maximum.

Results on five molecules are retold here after ChEMBL document CHEMBL2073842, “Characterization of the efflux transport of 17beta-estradiol-D-17beta-glucuronide from the brain across the blood-brain barrier” (J Pharmacol Exp Ther, 2001).

Data set [1] concerns the target T1, Organic anion transporter 3 (Rattus norvegicus, UniProt Q9R1U7).
T1 sequence (Q9R1U7 whole entry): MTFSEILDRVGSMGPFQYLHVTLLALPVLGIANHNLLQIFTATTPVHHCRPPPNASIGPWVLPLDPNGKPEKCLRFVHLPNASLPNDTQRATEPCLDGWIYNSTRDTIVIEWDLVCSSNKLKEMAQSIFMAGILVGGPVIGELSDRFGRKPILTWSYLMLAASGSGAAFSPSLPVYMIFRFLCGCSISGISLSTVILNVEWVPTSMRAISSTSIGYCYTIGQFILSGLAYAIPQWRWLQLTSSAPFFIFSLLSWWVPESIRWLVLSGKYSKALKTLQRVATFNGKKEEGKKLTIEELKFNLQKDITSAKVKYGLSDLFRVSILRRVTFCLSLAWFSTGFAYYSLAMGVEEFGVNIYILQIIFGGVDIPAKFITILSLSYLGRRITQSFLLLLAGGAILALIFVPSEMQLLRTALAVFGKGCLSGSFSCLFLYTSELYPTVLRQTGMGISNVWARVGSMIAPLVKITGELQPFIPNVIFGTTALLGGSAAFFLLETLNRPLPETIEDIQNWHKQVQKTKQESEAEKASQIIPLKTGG
As to the kind of experiment: TP_TRANSPORTER: inhibition of E217betaG uptake in Oat3-expressing LLC-PK1 cells. Format: functional, cell-based.

In data set [2] the target is T2, Solute carrier organic anion transporter family member 1A4 (Rattus norvegicus, UniProt O35913).
T2 sequence (O35913 whole entry): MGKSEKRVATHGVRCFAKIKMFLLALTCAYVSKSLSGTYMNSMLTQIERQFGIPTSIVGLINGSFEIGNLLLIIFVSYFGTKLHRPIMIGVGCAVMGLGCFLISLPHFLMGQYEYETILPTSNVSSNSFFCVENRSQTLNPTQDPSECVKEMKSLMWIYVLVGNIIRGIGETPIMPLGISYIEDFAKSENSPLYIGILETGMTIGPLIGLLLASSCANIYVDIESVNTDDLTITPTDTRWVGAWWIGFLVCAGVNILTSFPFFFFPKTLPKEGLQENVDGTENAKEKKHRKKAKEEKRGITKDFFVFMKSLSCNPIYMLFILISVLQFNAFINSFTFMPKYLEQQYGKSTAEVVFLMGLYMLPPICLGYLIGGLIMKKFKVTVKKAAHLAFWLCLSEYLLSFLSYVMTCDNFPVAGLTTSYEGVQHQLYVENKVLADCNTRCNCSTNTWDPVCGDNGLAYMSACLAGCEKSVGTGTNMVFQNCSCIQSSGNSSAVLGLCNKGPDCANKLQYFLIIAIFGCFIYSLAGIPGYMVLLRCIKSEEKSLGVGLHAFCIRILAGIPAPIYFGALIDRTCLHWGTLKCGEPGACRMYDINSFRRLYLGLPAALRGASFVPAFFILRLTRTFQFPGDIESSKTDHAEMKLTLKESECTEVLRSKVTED
The experiment in a line: TP_TRANSPORTER: inhibition of E217betaG uptake in Oatp2-expressing LLC-PK1 cells. The data set is classed as functional, cell-based.

Data set [3] concerns the target T3, Solute carrier organic anion transporter family member 1A1 (Rattus norvegicus, UniProt P46720).
T3 sequence (P46720 whole entry): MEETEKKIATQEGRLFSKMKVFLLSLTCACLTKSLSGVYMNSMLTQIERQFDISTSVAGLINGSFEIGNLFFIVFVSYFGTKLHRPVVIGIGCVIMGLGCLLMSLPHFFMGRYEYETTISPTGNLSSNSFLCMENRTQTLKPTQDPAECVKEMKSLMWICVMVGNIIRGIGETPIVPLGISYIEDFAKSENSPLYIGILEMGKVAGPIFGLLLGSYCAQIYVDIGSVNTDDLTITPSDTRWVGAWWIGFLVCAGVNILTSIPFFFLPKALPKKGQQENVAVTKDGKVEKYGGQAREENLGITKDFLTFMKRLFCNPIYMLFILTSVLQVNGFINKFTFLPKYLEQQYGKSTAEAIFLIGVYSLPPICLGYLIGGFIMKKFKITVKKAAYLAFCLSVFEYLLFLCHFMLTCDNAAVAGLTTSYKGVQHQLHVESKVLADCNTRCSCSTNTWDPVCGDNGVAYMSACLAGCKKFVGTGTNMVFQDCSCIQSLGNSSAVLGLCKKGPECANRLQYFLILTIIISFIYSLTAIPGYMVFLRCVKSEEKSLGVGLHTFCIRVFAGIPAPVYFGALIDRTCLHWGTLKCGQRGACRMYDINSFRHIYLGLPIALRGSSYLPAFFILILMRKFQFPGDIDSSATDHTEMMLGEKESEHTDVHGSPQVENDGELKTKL
The experiment in a line: TP_TRANSPORTER: inhibition of E217betaG uptake in Oatp1-expressing LLC-PK1 cells. Format: functional, cell-based.

Substrate in data set [4]: C[C@]12CC[C@@H]3c4ccc(O)cc4CC[C@H]3[C@@H]1CC[C@@H]2O[C@@H]1O[C@H](C(=O)O)[C@@H](O)[C@H](O)[C@H]1O
The experiment in a line: TP_TRANSPORTER: uptake in Oatp2-expressing LLC-PK1 cells. Format: functional, cell-based.

Substrate in data set [5]: Nc1ccc(C(=O)NCC(=O)O)cc1
As to the kind of experiment: cells, lysate or membranes named.

Substrate in data set [6]: C[C@]12CC[C@@H]3c4ccc(O)cc4CC[C@H]3[C@@H]1CC[C@@H]2O[C@@H]1O[C@H](C(=O)O)[C@@H](O)[C@H](O)[C@H]1O
The experiment in a line: TP_TRANSPORTER: uptake in Oatp1-expressing LLC-PK1 cells. The data set is classed as functional, cell-based.

Consider `Nc1ccc(C(=O)NCC(=O)O)cc1` [AMINOHIPPURIC ACID], for which, in data set [1], the affinity, expressed as Ki, was 301 µM.
In the case of `CCCN(CCC)S(=O)(=O)c1ccc(C(=O)O)cc1` [PROBENECID], the Ki was 20 µM in data set [1], 72.9 µM in data set [2] and 74.4 µM in data set [3].

B1: Solute carrier organic anion transporter family member 1A4 (Rattus norvegicus) (protein)
chain: MGKSEKRVATHGVRCFAKIKMFLLALTCAYVSKSLSGTYMNSMLTQIERQFGIPTSIVGLINGSFEIGNLLLIIFVSYFGTKLHRPIMIGVGCAVMGLGCFLISLPHFLMGQYEYETILPTSNVSSNSFFCVENRSQTLNPTQDPSECVKEMKSLMWIYVLVGNIIRGIGETPIMPLGISYIEDFAKSENSPLYIGILETGMTIGPLIGLLLASSCANIYVDIESVNTDDLTITPTDTRWVGAWWIGFLVCAGVNILTSFPFFFFPKTLPKEGLQENVDGTENAKEKKHRKKAKEEKRGITKDFFVFMKSLSCNPIYMLFILISVLQFNAFINSFTFMPKYLEQQYGKSTAEVVFLMGLYMLPPICLGYLIGGLIMKKFKVTVKKAAHLAFWLCLSEYLLSFLSYVMTCDNFPVAGLTTSYEGVQHQLYVENKVLADCNTRCNCSTNTWDPVCGDNGLAYMSACLAGCEKSVGTGTNMVFQNCSCIQSSGNSSAVLGLCNKGPDCANKLQYFLIIAIFGCFIYSLAGIPGYMVLLRCIKSEEKSLGVGLHAFCIRILAGIPAPIYFGALIDRTCLHWGTLKCGEPGACRMYDINSFRRLYLGLPAALRGASFVPAFFILRLTRTFQFPGDIESSKTDHAEMKLTLKESECTEVLRSKVTED
Regarding B1, the Michaelis-Menten constant (Km) in data set [4] came to 17 µM.

B2: Solute carrier family 22 member 6 (Rattus norvegicus) (protein)
chain: MAFNDLLKQVGGVGRFQLIQVTMVVAPLLLMASHNTLQNFTAAIPPHHCRPPANANLSKDGGLEAWLPLDKQGQPESCLRFTSPQWGPPFYNGTEANGTRVTEPCIDGWVYDNSTFPSTIVTEWNLVCSHRAFRQLAQSLYMVGVLLGAMVFGYLADRLGRRKVLILNYLQTAVSGTCAAYAPNYTVYCVFRLLSGMSLASIAINCMTLNVEWMPIHTRAYVGTLIGYVYSLGQFLLAGIAYAVPHWRHLQLVVSVPFFIAFIYSWFFIESARWYSSSGRLDLTLRALQRVARINGKQEEGAKLSIEVLRTSLQKELTLSKGQASAMELLRCPTLRHLFLCLSMLWFATSFAYYGLVMDLQGFGVSMYLIQVIFGAVDLPAKFVCFLVINSMGRRPAQMASLLLAGICILVNGIIPKSHTIIRTSLAVLGKGCLASSFNCIFLYTGELYPTVIRQTGLGMGSTMARVGSIVSPLVSMTAEFYPSMPLFIFGAVPVVASAVTALLPETLGQPLPDTVQDLKSRSRGKQNQQQQEQQKQMMPLQASTQEKNGL
For B2, in data set [5], the Km worked out at 85.1 µM.

B3: Solute carrier organic anion transporter family member 1A1 (Rattus norvegicus) (protein)
chain: MEETEKKIATQEGRLFSKMKVFLLSLTCACLTKSLSGVYMNSMLTQIERQFDISTSVAGLINGSFEIGNLFFIVFVSYFGTKLHRPVVIGIGCVIMGLGCLLMSLPHFFMGRYEYETTISPTGNLSSNSFLCMENRTQTLKPTQDPAECVKEMKSLMWICVMVGNIIRGIGETPIVPLGISYIEDFAKSENSPLYIGILEMGKVAGPIFGLLLGSYCAQIYVDIGSVNTDDLTITPSDTRWVGAWWIGFLVCAGVNILTSIPFFFLPKALPKKGQQENVAVTKDGKVEKYGGQAREENLGITKDFLTFMKRLFCNPIYMLFILTSVLQVNGFINKFTFLPKYLEQQYGKSTAEAIFLIGVYSLPPICLGYLIGGFIMKKFKITVKKAAYLAFCLSVFEYLLFLCHFMLTCDNAAVAGLTTSYKGVQHQLHVESKVLADCNTRCSCSTNTWDPVCGDNGVAYMSACLAGCKKFVGTGTNMVFQDCSCIQSLGNSSAVLGLCKKGPECANRLQYFLILTIIISFIYSLTAIPGYMVFLRCVKSEEKSLGVGLHTFCIRVFAGIPAPVYFGALIDRTCLHWGTLKCGQRGACRMYDINSFRHIYLGLPIALRGSSYLPAFFILILMRKFQFPGDIDSSATDHTEMMLGEKESEHTDVHGSPQVENDGELKTKL
Take B3: the Km in data set [6] was 2.58 µM.
